Columns and labels:
[1] = target: T1, HIV-1 RT-associated RNase H (Human immunodeficiency virus type 1 group M subtype B, UniProt P03366); experiment: RNase H polymerase-independent cleavage assay; format: biochemical; settings: for IC50: IC50, compound concentration required to reduce HIV-1 RT-associated RNase H activity by 50%; for remaining activity at 100 µM: read-out: Percentage of the control activity measured at the indicated compound concentration
T1 construct: His-tagged p66/p51 HIV-1 RT group M subtype B; His tag; made in house; host or cells: Escherichia coli strain M15 (plasmid p6HRT-prot)
Experimental: The Ar^1 and Ar^2 aromatic segments of the molecule also approach the protein surface, through hydrophobic interactions. These findings provide important information for further structural optimization. All these newly designed thiazolone[3,2-a]pyrimidine derivatives were evaluated for their inhibitory activity against HIV RT-associated RNase H, using the diketo acid RDS1643 as positive control. […] The decrease in activity observed in compounds containing a sulfonic acid group might be attributed to the excessively strong acidity of the sulfonic acid group, which could protonate the diazo group within the molecule. […] When Ar^2 was changed from a phenyl group to a naphthyl group, the activity of compound 10f gained a great improvement over that of compound 10k. […] And when a negatively charged polar group was present at the 2-position of Ar^2, the inhibitory activity is enhanced. […]
3. Biology Experimental section
3.1 Expression and purification of recombinant HIV-1 RTs.
His-tagged p66/p51 HIV-1 RT group M subtype B coded in a p6HRT-prot plasmid was expressed in the Escherichia coli strain M15.1 Heterodimeric RTs were expressed essentially and purified as described.2 E. coli cells harboring the expression vector were cultured until reaching an optical density at 600 nm of 0.7. Induction of protein expression was achieved by treating the cells with 1.7 mM isopropyl β-D-1-thiogalactopyranoside (IPTG) for a duration of 4 hours. The subsequent purification of the protein was performed using a BioLogic LP system (BioRad) employing a combination of immobilized metal affinity chromatography and ion exchange […]
To initiate the purification process, the cell pellets were resuspended in lysis buffer at a ratio of 1:2 (cell pellet volume: lysis buffer volume). The lysis buffer used consisted of 50 mM sodium phosphate buffer with a pH of 7.8, supplemented with 0.5 mg/ml lysozyme. The resuspended cells were incubated on ice for 20 minutes. Following this, NaCl was added to achieve a final concentration of 0.3 M. The cells were then subjected to sonication, with four cycles of 60 seconds each, alternating between one second on and one second off. Subsequently, the cell lysate was centrifuged at 30, 000×g for 1 […]
The supernatant obtained from the centrifugation step was loaded onto a Ni2+-NTA-Sepharose column that had been pre-equilibrated with a loading buffer consisting of 50 mM sodium phosphate buffer (pH 7.8), 0.3 M NaCl, 10% glycerol, and 10 mM imidazole. The column was washed with a buffer containing 50 mM sodium phosphate buffer (pH 6.0), 0.3 M NaCl, 10% glycerol, and 80 mM imidazole. The target protein, RT, was eluted using an imidazole gradient ranging from 0.08 M to 0.5 M in the wash buffer. Fractions containing the enzyme were collected and combined, and then diluted 1:1 with 50 mM sodium phosphate buffer (pH 7.0) containing 10% glycerol. The diluted protein sample was loaded onto a Hi-trap heparin HP column that had been pre-equilibrated with 10 column volumes of a loading buffer consisting of 50 mM sodium phosphate buffer (pH 7.0), 10% glycerol, and 150 mM NaCl. The column was washed with the loading buffer, and the RT enzyme was eluted using Elute Buffer 2, which
(1 picture or pasted object on this page, not shown here) […]
comprised 50 mM sodium phosphate buffer (pH 7.0), 10% glycerol, and 1 M NaCl.
The eluted fractions containing the purified protein were collected, and the protein was subsequently dialyzed and stored in a buffer composed of 50 mM Tris-HCl (pH 7.0), 25 mM NaCl, 1 mM EDTA, and 50% glycerol. The catalytic activities of the purified protein samples were determined, and aliquots were stored at -80 °C for further use.
3.2 RNase H Polymerase-Independent Cleavage Assay
The HIV-1 RT-associated RNase H activity was measured as described.3 In summary, the reaction was performed in a black 96-well plate with a total volume of 100 μL. The reaction mix consisted of 50 mM Tris HCl (pH 7.8), 6 mM MgCl2, 1 mM dithiothreitol […]

[2] = recombinant HIV-1 wt RT, hybrid RNA/DNA substrate, 37 °C, 1 hour

Structure (SMILES) | IC50 [1, 2] [µM] | melting point [°C] | remaining activity at 100 µM [1] [%] | IC50, compound concentration required to reduce HIV-1 RT-associated RNase H activity by 50% [1, 2] [µM]
COC(=O)C1=C(C)N=C2SC(=NNc3ccccc3O)C(=O)N2C1c1ccccc1 (centres unmarked) [Compound 10a, Methyl 2-(2-(2-hydroxyphenyl)hydrazineylidene)-7-methyl-3-oxo-5-phenyl-2,3-dihydro-5H-thiazolo[3,2-a]pyrimidine-6-carboxylate] | 18.2 ± 0.85 | 227 to 229 | – | –
COC(=O)C1=C(C)N=C2SC(=NNc3cc(OC)c(OC)c(OC)c3)C(=O)N2C1c1ccccc1 (centres unmarked) [Compound 10c, Methyl 7-methyl-3-oxo-5-phenyl-2-(2-(3,4,5-trimethoxyphenyl)hydrazineylidene)-2,3-dihydro-5H-thiazolo[3,2-a]pyrimidine-6-carboxylate] | 24.4 ± 1.25 | 211 to 213 | – | –
COC(=O)C1=C(C)N=C2S/C(=N\Nc3ccccc3C(=O)OC)C(=O)N2C1c1ccccc1 (centres unmarked) [Compound 10d, Methyl 2-((2-(methoxycarbonyl)phenyl)diazenyl)-7-methyl-3-oxo-5-phenyl-2,3-dihydro-5H-thiazolo[3,2-a]pyrimidine-6-carboxylate] | 8.27 ± 0.39 | 184 to 186 | – | –
COC(=O)C1=C(C)N=C2SC(=NNc3ccc(OC)cc3S(=O)(=O)O)C(=O)N2C1c1ccccc1 (centres unmarked) [Compound 10e, 5-Methoxy-2-(2-(6-(methoxycarbonyl)-7-methyl-3-oxo-5-phenyl-5H-thiazolo[3,2-a]pyrimidin-2(3H)-ylidene)hydrazineyl)benzenesulfonic acid] | 58.4 ± 1.71 | 247 to 249 | – | –
COC(=O)C1=C(C)N=C2S/C(=N\Nc3ccc4ccccc4c3S(=O)(=O)O)C(=O)N2C1c1ccccc1 (centres unmarked) [Compound 10f] | 7.04 ± 0.57 | 289 to 293 | – | –
COC(=O)C1=C(C)N=C2SC(=NNc3ccccc3C(C)=O)C(=O)N2C1c1ccccc1 (centres unmarked) [Compound 10g, Methyl 2-(2-(2-acetylphenyl)hydrazineylidene)-7-methyl-3-oxo-5-phenyl-2,3-dihydro-5H-thiazolo[3,2-a]pyrimidine-6-carboxylate] | 9.01 ± 2.17 | 199 to 202 | – | –
COC(=O)C1=C(C)N=C2SC(=NNc3ccc(OC)c(OC)c3)C(=O)N2C1c1ccccc1 (centres unmarked) [Compound 10h, Methyl 2-(2-(3,4-dimethoxyphenyl)hydrazineylidene)-7-methyl-3-oxo-5-phenyl-2,3-dihydro-5H-thiazolo[3,2-a]pyrimidine-6-carboxylate] | 14.4 ± 1.23 | 204 to 206 | – | –
COC(=O)C1=C(C)N=C2SC(=NNc3ccccc3OC)C(=O)N2C1c1ccccc1 (centres unmarked) [Compound 10i, Methyl 2-(2-(2-methoxyphenyl)hydrazineylidene)-7-methyl-3-oxo-5-phenyl-2,3-dihydro-5H-thiazolo[3,2-a]pyrimidine-6-carboxylate] | 8.32 ± 0.06 | 189 to 192 | – | –
COC(=O)C1=C(C)N=C2SC(=NNc3ccccc3)C(=O)N2C1c1ccccc1 (centres unmarked) [Compound 10j, Methyl 7-methyl-3-oxo-5-phenyl-2-(2-phenylhydrazineylidene)-2,3-dihydro-5H-thiazolo[3,2-a]pyrimidine-6-carboxylate] | 21.45 ± 0.1 | 124 to 127 | – | –
COC(=O)C1=C(C)N=C2S/C(=N\Nc3ccccc3S(=O)(=O)O)C(=O)N2C1c1ccccc1 (centres unmarked) [Compound 10k, (2-(6-(Methoxycarbonyl)-7-methyl-3-oxo-5-phenyl-5H-thiazolo[3,2-a]pyrimidin-2(3H)-ylidene)hydrazineyl)benzenesulfonic acid] | > 100 | 262 to 266 | 85 | –
COC(=O)C1=C(C)N=C2SC(=NNc3cccc([N+](=O)[O-])c3)C(=O)N2C1c1ccccc1 (centres unmarked) [Compound 10l, Methyl 7-methyl-2-(2-(3-nitrophenyl)hydrazineylidene)-3-oxo-5-phenyl-2,3-dihydro-5H-thiazolo[3,2-a]pyrimidine-6-carboxylate] | 6.41 ± 0.24 | 250 to 252 | – | –
COC(=O)C1=C(C)N=C2SC(=NNc3cccc(C(C)=O)c3)C(=O)N2C1c1ccccc1 (centres unmarked) [Compound 10m, Methyl 2-(2-(3-acetylphenyl)hydrazineylidene)-7-methyl-3-oxo-5-phenyl-2,3-dihydro-5H-thiazolo[3,2-a]pyrimidine-6-carboxylate] | 18.4 ± 0.79 | 213 to 216 | – | –
COC(=O)C1=C(C)N=C2SC(=NNc3cccc(C(=O)OC)c3)C(=O)N2C1c1ccccc1 (centres unmarked) [Compound 10n, Methyl 2-(2-(3-(methoxycarbonyl)phenyl)hydrazineylidene)-7-methyl-3-oxo-5-phenyl-2,3-dihydro-5H-thiazolo[3,2-a]pyrimidine-6-carboxylate] | 7.03 ± 0.17 | 214 to 216 | – | –
COC(=O)C1=C(C)N=C2SC(=NNc3ccccc3OC)C(=O)N2C1c1ccc(OC)c(OC)c1OC (centres unmarked) [Compound 11a, Methyl 2-(2-(2-methoxyphenyl)hydrazineylidene)-7-methyl-3-oxo-5-(2,3,4-trimethoxyphenyl)-2,3-dihydro-5H-thiazolo[3,2-a]pyrimidine-6-carboxylate] | 11.8 ± 0.91 | 178 to 180 | – | –
COC(=O)C1=C(C)N=C2SC(=NNc3ccccc3)C(=O)N2C1c1ccc(OC)c(OC)c1OC (centres unmarked) [Compound 11b, Methyl 7-methyl-3-oxo-2-(2-phenylhydrazineylidene)-5-(2,3,4-trimethoxyphenyl)-2,3-dihydro-5H-thiazolo [3,2-a]pyrimidine-6-carboxylate] | 48.9 ± 4.73 | 189 to 192 | – | –
COC(=O)C1=C(C)N=C2SC(=NNc3cccc([N+](=O)[O-])c3)C(=O)N2C1c1ccc(OC)c(OC)c1OC (centres unmarked) [Compound 11d, Methyl 7-methyl-2-(2-(3-nitrophenyl)hydrazineylidene)-3-oxo-5-(2,3,4-trimethoxyphenyl)-2,3-dihydro-5H-thiazolo[3,2-a]pyrimidine-6-carboxylate] | 10.1 ± 1.64 | 236 to 238 | – | –
COC(=O)C1=C(C)N=C2SC(=NNc3ccccc3S(=O)(=O)O)C(=O)N2C1c1ccc(OC)c(OC)c1OC (centres unmarked) [Compound 11e, 2-(2-(6-(Methoxycarbonyl)-7-methyl-3-oxo-5-(2,3,4-trimethoxyphenyl)-5H-thiazolo[3,2-a]pyrimidin-2(3H)-ylidene)hydrazineyl)benzenesulfonic acid] | > 100 | 238 to 240 | 97 | –
COC(=O)C1=C(C)N=C2SC(=NNc3ccc(OC)cc3S(=O)(=O)O)C(=O)N2C1c1ccc(OC)c(OC)c1OC (centres unmarked) [Compound 11f, 5-Methoxy-2-(2-(6-(methoxycarbonyl)-7-methyl-3-oxo-5-(2,3,4-trimethoxyphenyl)-5H-thiazolo[3,2-a]pyrimidin-2(3H)-ylidene)hydrazineyl)benzenesulfonic acid] | > 100 | 244 to 246 | 61 | –
COC(=O)C1=C(C)N=C2S/C(=N\Nc3ccc4ccccc4c3S(=O)(=O)O)C(=O)N2C1c1ccc(OC)c(OC)c1OC (centres unmarked) [Compound 11g, (2-(6-(Methoxycarbonyl)-7-methyl-3-oxo-5-(2,3,4-trimethoxyphenyl)-5H-thiazolo[3,2-a]pyrimidin-2(3H)-ylidene)hydrazineyl)naphthalene-1-sulfonic acid] | – | 241 to 244 | – | –
CCOC(=O)C(=O)CC(=O)/C=C/c1cccn1Cc1ccc(F)cc1 [RDS1643, reference compound] | – | – | – | 8.6 ± 1.30

Source: publication PMC11085872, “Structure-Based Design of Novel Thiazolone[3,2-a]pyrimidine Derivatives as Potent RNase H Inhibitors for HIV Therapy” (Molecules, 2024)
